Data: US20210267996A1, “Compounds for inhibition of inflammation” (Children`s Medical Center Corporation, priority 2018, published 2021)

What was measured:
[1] = target: T1, caspase-11 (Mus musculus, UniProt P70343); assay: Caspase-11 inhibition assay (Ac-YVAD-AMC); assay type: biochemical
T1 construct: made in house; host or cells: Sf9 (baculovirus)
T1 sequence (P70343 81-373): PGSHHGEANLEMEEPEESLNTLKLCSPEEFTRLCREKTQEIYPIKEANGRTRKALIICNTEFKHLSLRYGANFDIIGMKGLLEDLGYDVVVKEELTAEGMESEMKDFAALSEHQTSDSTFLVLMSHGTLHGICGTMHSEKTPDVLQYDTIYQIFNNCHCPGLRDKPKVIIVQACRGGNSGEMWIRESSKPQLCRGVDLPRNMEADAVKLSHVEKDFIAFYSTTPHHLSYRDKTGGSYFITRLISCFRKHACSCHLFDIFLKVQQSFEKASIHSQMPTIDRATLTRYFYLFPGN
Protocol: Caspase-1 and caspase-11 inhibition assays: the fluorogenic assay for caspase-1 and caspase-11 activity is based on release of 7-amino-4-methylcoumarin (AMC) from the caspase substrate Ac-YVAD-AMC. Compounds (8 nM-50 μM) were incubated with 0.5 U of caspase-1 or caspase-11 for 30 min in assay buffer (20 mM HEPES, 150 mM NaCl) in 384-well plates (Corning 3820) before addition of Ac-YVAD-AMC (40 μM) to initiate the reactions. Reactions were monitored in a SpectraMax M5 plate reader (Molecular Devices, Sunnyvale, Calif. USA) with excitation/emission wavelengths at 350/460 nm. The fluorescence intensity of each reaction was recorded every 2 min for 2 hrs.
Fluorescence intensity at 460 nm was measured after excitation at 350 nm.

[2] = target: T2, Human GSDMD (Homo sapiens, UniProt P57764); assay: Liposome leakage assay (Tb3+/DPA), GSDMD plus caspase-11; assay type: biochemical; settings: for IC50: WT GSDMD, caspase-11-triggered, read-out: IC50 of liposome leakage
T2 construct: His6-MBP (N, cleaved yes); made in house; host or cells: E. coli BL21 (DE3) for GSDMD; Sf9 for caspase-11
T2 sequence (P57764 1-484): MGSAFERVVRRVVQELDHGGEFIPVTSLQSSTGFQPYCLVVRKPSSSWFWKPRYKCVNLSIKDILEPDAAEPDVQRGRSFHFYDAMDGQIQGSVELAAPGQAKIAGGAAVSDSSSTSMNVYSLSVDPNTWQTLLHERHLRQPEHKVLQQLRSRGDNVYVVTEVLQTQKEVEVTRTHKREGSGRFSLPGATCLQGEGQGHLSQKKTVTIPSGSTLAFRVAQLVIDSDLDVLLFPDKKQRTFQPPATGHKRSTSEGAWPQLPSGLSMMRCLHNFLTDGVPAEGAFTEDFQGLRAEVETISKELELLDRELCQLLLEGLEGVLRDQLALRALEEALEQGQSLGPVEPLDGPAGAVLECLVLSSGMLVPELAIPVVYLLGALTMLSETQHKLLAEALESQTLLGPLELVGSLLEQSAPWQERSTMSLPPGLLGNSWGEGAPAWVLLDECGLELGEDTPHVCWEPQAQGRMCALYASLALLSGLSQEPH
Protocol: The lipid mixture was suspended in 1 mL Buffer A (20 mM HEPES, 150 mM NaCl, 50 mM sodium citrate, and 15 mM TbCl3) for 3 min. The suspension was pushed through 100 nm Whatman® Nuclepore™ Track-Etched Membrane 30 times to obtain homogeneous liposomes. The filtered suspension was purified by size exclusion column (Superose 6, 10/300 GL) in Buffer B (20 mM HEPES, 150 mM NaCl) to remove TbCl3 outside liposomes. […] The liposomes are diluted to 50 μM with Buffer C (20 mM HEPES, 150 mM NaCl and 50 μM DPA) for use in high-throughput screening.

SMILES | times less active against caspase-11 than disulfiram [1] | times less active than disulfiram at inhibiting liposome leakage ([2]; GSDMD plus caspase-11) | IC50 [2] | IC50 [1] | effect of Cu(II) on caspase-11 inhibition ([1]; with Cu(II)) | incubation time to inhibition of liposome leakage ([2]; time course, preincubation 2-90 min) | effect of copper gluconate (Cu2+) on inhibition of liposome leakage ([2]; with Cu2+)
Cc1ccc(S(=O)(=O)/C=C/C#N)cc1 [Bay 11-7082] | about 3 fold | 23 fold | 6.81 ± 0.1 µM | – | – | – | –
CCN(CC)C(=S)SSC(=S)N(CC)CC [C-23, Tetraethylthiuram disulfide] | – | – | ~0.3 µM | 0.73 ± 0.07 µM | did not strongly change | ≤ 2 min | only weakly increased
